Key:
[1] = target: T1, human DPP1 enzyme (Homo sapiens (Human), UniProt P53634); assay: Human DPP1 enzyme IC50 assay; format: biochemical; conditions: recombinant human DPP1, H-Gly-Arg-AMC substrate 400 μM
Protocol: Test articles were applied to activated human DPP1 enzyme in Assay Buffer (25 mM MES pH 6.0, 50 mM NaCl, 5 mM DTT) in a total reaction volume of 125 μL. 25 μL of compound in Assay Buffer plus 5% DMSO was first added to 50 μL of activated human DPP1 enzyme at a concentration of 1 ng/μL and allowed to pre-incubate for 10 minutes at 37° C. after which 50 μL of 1000 μM H-Gly-Arg-AMC substrate (Bachem; St. Torrance, CA) was added, giving final substrate concentration of 400 μM and a final DMSO concentration of 1%. Substrate cleavage was measured for 90 minutes at 37° C., with fluorescence at Excitation/Emission 350/450 nm measured every 5 minutes. DPP1 concentration was interpolated based on its activity relative to a standard curve of activated human recombinant DPP1 enzyme. IC50 values for each compound were calculated via the XLFit (IDBS Version 5.3.1.3) Add-On to Microsoft Excel using the four parameter fit equation y={A+[(B-A)]/[1+((C/x)^D)]}, which appears as equation number 205 (4 Parameter Logistic Model or Sigmoidal Dose-Response Model) in XLFit. Default constraints were used for each Parameter.

[2] = target: T2, DPP1 in HL-60 cells (Homo sapiens (Human), UniProt P53634); assay: DPP1 Cell IC50 assay; format: cell-based; conditions: H-Gly-Phe-AFC substrate, 60 min pre-incubation
Protocol: Media was changed every three to four days and cells were not allowed to exceed 1×10^6 cells per mL. Prior to assay, cells were collected by centrifugation at 500 rcf for 3 minutes, resuspended in PBS and counted. Cells were diluted in PBS to a concentration of 5×10^5 live cells per mL and transferred to black 96-well plates for assay, 60 μL per well. Test articles were diluted in PBS plus 0.5% DMSO, and 20 μL was added to each assay well. Compound was allowed to pre-incubate with cells with gentle shaking at 100 rpm for 60 minutes at 37° C. in a cell culture incubator maintained at 5% CO2, after which 20 μL of 500 μM H-Gly-Phe-AFC substrate (MP Biomedicals; Solon, OH) was added to each well. Plates were returned to the incubator with shaking at 100 rpm for 30 minutes, after which fluorescence was measured at Excitation/Emission 400/505 nm. % Inhibition was calculated from RFU values compared to control cell wells that received only PBS plus 0.5% DMSO. IC50 values for each compound were calculated via the XLFit (IDBS Version 5.3.1.3) Add-On to Microsoft Excel using the four parameter fit equation y=(A+((B-A)/(1+((C/x)^D)))), which appears as equation number 205 (4 Parameter Logistic Model or Sigmoidal Dose-Response Model) in XLFit.

[3] = target: T1, human DPP1 enzyme; assay: Human DPP1 enzyme single-point percent inhibition testing (HL-60 lysate, H-Gly-Arg-AMC substrate); format: biochemical; conditions: read-out: human DPP1 enzyme % inhibition @ 10 nM, 10 nM compound, 400 μM H-Gly-Arg-AMC, 10 min pre-incubation at 37° C.
[4] = target: T2, DPP1 in HL-60 cells; assay: DPP1 cell single-point percent inhibition testing (HL-60 cells, H-Gly-Phe-AFC substrate); format: cell-based; conditions: read-out: DPP1 cell % inhibition @ 5 nM, 5 nM compound, 100 μM H-Gly-Phe-AFC, 60 min pre-incubation at 37° C.

T1 sequence (P53634 25-134): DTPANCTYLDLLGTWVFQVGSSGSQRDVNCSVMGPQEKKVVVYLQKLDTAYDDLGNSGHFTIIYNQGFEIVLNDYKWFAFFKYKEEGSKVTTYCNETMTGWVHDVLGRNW
T1 sequence (P53634 231-394): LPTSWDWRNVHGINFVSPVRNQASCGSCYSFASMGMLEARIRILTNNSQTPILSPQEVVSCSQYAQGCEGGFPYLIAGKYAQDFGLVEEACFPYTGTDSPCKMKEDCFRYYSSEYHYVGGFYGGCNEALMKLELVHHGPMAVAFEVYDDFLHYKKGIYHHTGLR
T1 sequence (P53634 395-463): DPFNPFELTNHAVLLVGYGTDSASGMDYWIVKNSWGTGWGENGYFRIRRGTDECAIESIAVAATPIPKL
T2 sequence (P53634 25-134): as the sequence (P53634 25-134) above
T2 sequence (P53634 231-394): as the sequence (P53634 231-394) above
T2 sequence (P53634 395-463): as the sequence (P53634 395-463) above

SMILES	IC50 [1] [nM]	IC50 [2] [nM]	inhibition at 0.01 µM [3] [%]	inhibition at 0.005 µM [4] [%]
Cn1c(=O)oc2ccc(-c3ccc(C[C@@H](C#N)NC(=O)[C@@H](N)C4CCCO4)cc3)cc21 (stereo in doubt) [Compound 210, (2S)-2-amino-N-[(1S)-1-cyano-2-[4-(3-methyl-2-oxo-1,3-benzoxazol-5-yl)phenyl]ethyl]-2-[(2S)-oxolan-2-yl]acetamide]	5 to 15	≥ 2.5	–	–
Cn1c(=O)oc2ccc(-c3ccc(C[C@@H](C#N)NC(=O)[C@@H](N)C4CCCO4)cc3)cc21 (stereo in doubt) [Compound 212, (2S)-2-amino-N-[(1S)-1-cyano-2-[4-(3-methyl-2-oxo-1,3-benzoxazol-5-yl)phenyl]ethyl]-2-[(2R)-oxolan-2-yl]acetamide]	≤ 5	1 to 2.5	–	–
Cn1c(=O)oc2ccc(-c3ccc(CC(C#N)NC(=O)C4(N)CCCC45CC5)c(F)c3)cc21 (stereo in doubt) [Compound 273A, (4S)-4-amino-N-[(1S)-1-cyano-2-[2-fluoro-4-(3-methyl-2-oxo-1,3-benzoxazol-5-yl)phenyl]ethyl]spiro[2.4]heptane-4-carboxamide]	≥ 15	≥ 2.5	–	–
C[C@@H](N)[C@@H](O)C(=O)N[C@H](C#N)Cc1ccc(-c2ccc3oc(=O)n(C)c3c2)cc1 [Compound 102B]	≥ 15	≥ 2.5	–	–
CO[C@@H](CN)C(=O)N[C@H](C#N)Cc1ccc(-c2ccc3oc(=O)n(C)c3c2)cc1 [Compound 103, (2S)-3-amino-N-[(1S)-1-cyano-2-[4-(3-methyl-2-oxo-1,3-benzoxazol-5-yl)phenyl]ethyl]-2-methoxypropanamide]	≥ 15	≥ 2.5	–	–
CO[C@@H](CN(C)C)C(=O)N[C@H](C#N)Cc1ccc(-c2ccc3oc(=O)n(C)c3c2)cc1 [Compound 105, (2S)—N-[(1S)-1-cyano-2-[4-(3-methyl-2-oxo-1,3-benzoxazol-5-yl)phenyl]ethyl]-3-(dimethylamino)-2-methoxypropanamide]	≥ 15	1 to 2.5	–	–
CNC[C@H](OC)C(=O)N[C@H](C#N)Cc1ccc(-c2ccc3oc(=O)n(C)c3c2)cc1 [Compound 109, (S)—N—((S)-1-cyano-2-(4-(3-methyl-2-oxo-2,3-dihydrobenzo[d]oxazol-5-yl)phenyl)ethyl)-2-methoxy-3-(methylamino)propanamide]	≥ 15	≥ 2.5	–	–
Cn1c(=O)oc2ccc(-c3ccc(C[C@@H](C#N)NC(=O)[C@@H](O)CN)cc3)cc21 [Compound 110, (2S)-3-amino-N-[(1S)-1-cyano-2-[4-(3-methyl-2-oxo-1,3-benzoxazol-5-yl)phenyl]ethyl]-2-hydroxypropanamide]	≥ 15	≥ 2.5	–	–
CNC[C@H](O)C(=O)N[C@H](C#N)Cc1ccc(-c2ccc3oc(=O)n(C)c3c2)cc1 [Compound 111, (2S)—N-[(1S)-1-cyano-2-[4-(3-methyl-2-oxo-1,3-benzoxazol-5-yl)phenyl]ethyl]-2-hydroxy-3-(methylamino)propanamide]	≥ 15	≥ 2.5	–	–
CN(C)C[C@H](O)C(=O)N[C@H](C#N)Cc1ccc(-c2ccc3nnn(C)c3c2)cc1F [Compound 141, (2S)—N-[(1S)-1-cyano-2-[2-fluoro-4-(3-methyl-1,2,3-benzotriazol-5-yl)phenyl]ethyl]-3-(dimethylamino)-2-hydroxypropanamide]	5 to 15	1 to 2.5	–	–
CN(C)C[C@H](O)C(=O)N[C@H](C#N)Cc1ccc(-c2ccc3oc(=O)n(CCN4CCOCC4)c3c2)cc1F [Compound 142, (2S)—N-[(1S)-1-cyano-2-(2-fluoro-4-{3-[2-(morpholin-4-yl)ethyl]-2-oxo-1,3-benzoxazol-5-yl}phenyl)ethyl]-3-(dimethylamino)-2-hydroxypropanamide]	5 to 15	≥ 2.5	–	–
CN(C)C[C@H](O)C(=O)N[C@H](C#N)Cc1ccc(-c2ccc3c(c2)C2(CCN(C4COC4)CC2)OC3)cc1 [Compound 144, (2S)—N-[(1S)-1-cyano-2-{4-[1′-(oxetan-3-yl)-3H-spiro[2-benzofuran-1,4′-piperidin]-6-yl]phenyl}ethyl]-3-(dimethylamino)-2-hydroxypropanamide]	≥ 15	≥ 2.5	–	–
CN(C)C[C@H](O)C(=O)N[C@H](C#N)Cc1ccc(-c2ccc3c(c2)C2(CCCN(C)C2)C(=O)N3C)cc1 (stereo partly drawn) [Compound 145, (2S)—N-[(1S)-1-cyano-2-(4-{1,1′-dimethyl-2-oxospiro[indole-3,3′-piperidin]-5-yl}phenyl)ethyl]-3-(dimethylamino)-2-hydroxypropanamide]	≥ 15	1 to 2.5	–	–
CCCCOCCn1c(=O)oc2ccc(-c3ccc(C[C@@H](C#N)NC(=O)[C@@H](O)CN(C)C)c(F)c3)cc21 [Compound 146, (2S)—N-[(1S)-2-{4-[3-(2-butoxyethyl)-2-oxo-1,3-benzoxazol-5-yl]-2-fluorophenyl}-1-cyanoethyl]-3-(dimethylamino)-2-hydroxypropanamide]	5 to 15	≥ 2.5	–	–
Cn1c(=O)oc2ccc(-c3ccc(C[C@@H](C#N)NC(=O)[C@H](N)CCO)cc3)cc21 [Compound 169, (2R)-2-amino-N-[(1S)-1-cyano-2-[4-(3-methyl-2-oxo-1,3-benzoxazol-5-yl)phenyl]ethyl]-4-hydroxybutanamide]	≥ 15	≥ 2.5	–	–
C[C@@H](O)[C@](C)(N)C(=O)N[C@H](C#N)Cc1ccc(-c2ccc3oc(=O)n(C)c3c2)cc1 [Compound 171A, (2S,3R)-2-amino-N-[(1S)-1-cyano-2-[4-(3-methyl-2-oxo-1,3-benzoxazol-5-yl)phenyl]ethyl]-3-hydroxy-2-methylbutanamide]	≥ 15	≥ 2.5	–	–
C[C@H](O)[C@](C)(N)C(=O)N[C@H](C#N)Cc1ccc(-c2ccc3oc(=O)n(C)c3c2)cc1 [Compound 171B, (2S,3S)-2-amino-N-[(1S)-1-cyano-2-[4-(3-methyl-2-oxo-1,3-benzoxazol-5-yl)phenyl]ethyl]-3-hydroxy-2-methylbutanamide]	≥ 15	≥ 2.5	–	–
CC(C)C(C)(N)C(=O)N[C@H](C#N)Cc1ccc(-c2ccc3oc(=O)n(C)c3c2)cc1 (stereo partly drawn) [Compound 172, 2-amino-N-[(1S)-1-cyano-2-[4-(3-methyl-2-oxo-1,3-benzoxazol-5-yl)phenyl]ethyl]-2,3-dimethylbutanamide]	5 to 15	1 to 2.5	–	–
Cn1c(=O)oc2ccc(-c3ccc(C[C@@H](C#N)NC(=O)CC(N)C4CCCCC4)cc3)cc21 (some centres unmarked) [Compound 188]	≥ 15	≥ 2.5	–	–
Cn1c(=O)oc2ccc(-c3ccc(C[C@@H](C#N)NC(=O)CC(N)C4CCCCC4)cc3)cc21 (stereo partly drawn) [Compound 190, 3-amino-N-[(1S)-1-cyano-2-[4-(3-methyl-2-oxo-2,3-dihydro-1,3-benzoxazol-5-yl)phenyl]ethyl]-3-cyclohexylpropanamide]	–	≥ 2.5	–	–
CC(C(=O)N[C@H](C#N)Cc1ccc(-c2ccc3oc(=O)n(C)c3c2)cc1)C1(N)CC1 (some centres unmarked) [Compound 195]	≥ 15	≥ 2.5	–	–
CN(C)C[C@](C)(O)C(=O)N[C@H](C#N)Cc1ccc(-c2ccc(S(=O)(=O)N3CCC3)cc2)cc1 [Compound 415]	–	–	≤ 40	≤ 76.5
CN(C)C[C@](C)(O)C(=O)N[C@H](C#N)Cc1ccc(-c2ccc3cnn(C)c3c2)cc1F [Compound 416]	–	–	40 to 66.7	76.5 to 93.9
CN(C)C[C@](C)(O)C(=O)N[C@H](C#N)Cc1ccc(-c2ccc3nnn(C)c3c2)cc1F [Compound 417]	–	–	≥ 66.7	76.5 to 93.9
CN(C)C[C@](C)(O)C(=O)N[C@H](C#N)Cc1ccc(-c2cnc3c(n2)CCCC3)cc1F [Compound 418]	–	–	40 to 66.7	≤ 76.5
CN(C)C[C@](C)(O)C(=O)N[C@H](C#N)Cc1ccc(-c2ccc(S(=O)(=O)N3CCC3)cc2)cc1F [Compound 419]	–	–	≤ 40	≤ 76.5
CN(C)C[C@](C)(O)C(=O)N[C@H](C#N)Cc1cc2c(cc1F)-c1ccc(F)cc1CO2 [Compound 420]	–	–	≤ 40	≤ 76.5
